{
  "source": "patent US20060287383A1",
  "about": "“Substance exhibiting antidepressant property” (priority 2003, published 2006)",
  "key": {"[1]": {"system": "patients having depressive illnesses", "assay": "clinical study, Hamilton rating scale for depressive illness", "format": "in vivo, human", "description": "The Hamilton rating scale for primary depressive illness (Hamilton M. Development of a rating scale for primary depressive illness//Br J Soc Clin Psychol. 1967 December;6(4):278-96) is one of the most widely used scales for assessing depression in the clinical practice.\nThe material for clinical studies has comprised two homogenous groups of patients having depressive illnesses (40 persons) aged 20-42, out of which 20 patients have taken amitriptyline in the daily dose of 75 mg (25 mg three times a day), and 20 patients have taken phenotropyl in the daily dose of 100 mg as a single dose in the morning time. For a comparative study of the medications antidepressant activity the patients have been enlisted for the study according to the following criteria: the informed consent is available, a light or moderate depressive episode (F32.0 ? F32.1 according to MCB-10) is present, the total score under the Hamilton rating scale is not lower than 18, no contraindications to taking amitriptyline and phenotropyl. The patients have been relatively uniformly assigned to the said groups according to meaningful factors, such as sex and age, time for which the condition exists and syndrome characteristics. The condition existence time varied from 1 to 2 years. The therapy efficiency has been assessed on the basis of a degree of reduction of the total score under the Hamilton scale, namely: full effect—reduction by more than 50%; partial reduction—from 25 to 50%; no effect—reduction by less than 25%. The condition of the patients has been assessed during the background studies and at each 7th day of the therapy for the whole 6 weeks of the therapy. In total, seven examinations have been carried out. The comparative data on the general efficiency pf the medications, as given in Table 5, evidence a rather quick reduction of the depressive illness psychopathological symptoms in the process of administering phenotropyl and amitriptyline. However, the antidepressant effect of phenotropyl has been more pronounced on the 7th and 14th days of the therapy. The full reduction has been attained in 25% and 40% of the patients, respectively. […] From the 28th day of the therapy the number of the patients experiencing the maximum effect has not been changed either on the 35th or the 42nd days of the therapy. Out of 20% of the patients experiencing a partial reduction of the depressive symptoms, 15% have been patients with the reduction from 25% to 50%, and 5%—patients with the reduction by less than 25%."}, "[2]": {"system": "white outbred male rats", "assay": "reserpine depression method according to Bernardi", "format": "in vivo", "details": "for reduction of the diarrhea intensity / reduction of the intensity of ptosis: versus reserpine; for orientation and motion activity: reserpinized rats; for Diarrhea / Ptosis: 4-point scale; for Number of pulses in activity meter: three minutes, Varimex", "description": "The method of reserpine depression according to Bernardi (Bernardi D., Paglialunga S., Jori A. Peripheral and central components in the hyperthermic effect of desipramine in rezerpinized rats//J. Pharm. Pharmacol., 1968, vol. 20, p. 204-209) is one of the basic models for assessing antidepressants in studies of new pharmaceuticals. The studies have been conducted with white outbred male rats having the weight from 200 to 240 grams. Reserpine has been introduced intraperitoneally, as a single dose of 2.5 mg/kg 2 hours before the introduction of phenotropyl (intraperitoneally, single doses of 25, 50, 100 and 200 mg/kg) and 3 hours before starting the study. The animals from the control group have received intraperitoneally distilled water only in the same volumes as the animals from the experimental groups. The antidepressant activity of phenotropyl has been assessed by its effect on sedation (suppression of the orientation and motion activity), intensity of ptosis and diarrhea, which have been caused by reserpine in the rats.\nThe orientation and motion activity of the animals has been studied for three minutes in a special activity meter (Varimex). The intensity of ptosis and diarrhea has been assessed on the standard 4-point scale (Mashkovsky M. D., Andreeva N. I., Polezhaeva A. I. Pharmacology of Antidepressants. Moscow, Medicine Publishers, 1983, p. 194-199)."}, "[3]": {"details": "reserpine 2.5 mg/kg + phenotropyl 25 mg/kg intraperitoneally"}, "[4]": {"details": "reserpine 2.5 mg/kg + phenotropyl 50 mg/kg intraperitoneally"}, "[5]": {"details": "reserpine 2.5 mg/kg + phenotropyl 100 mg/kg intraperitoneally"}, "[6]": {"details": "reserpine 2.5 mg/kg + phenotropyl 200 mg/kg intraperitoneally"}},
  "data": [
    {"smiles": "NC(=O)CN1CC(c2ccccc2)CC1=O", "note": "(centres unmarked) [Phenotropyl, N-carbamoyl-methyl-4-phenyl-2-pyrrolidone]", "values": [
      {"measurement": "sedative and cholinergic effects", "setting": "[1]; 100 mg daily, 6 weeks of therapy", "value": "no cases of sedative and cholinergic effects have been recorded"},
      {"measurement": "time at which full reduction is attained in 70% and 80% of the patients, compared with amitriptyline", "setting": "[1]; 100 mg daily, 21st and 28th days of the therapy", "value": "two weeks earlier than for the amitriptyline therapy"},
      {"measurement": "patients (%) with reduction of total Hamilton score 25-49", "setting": "[1]; 7th therapy day, 100 mg daily", "value": 25, "unit": "%"},
      {"measurement": "patients (%) with reduction of total Hamilton score <25", "setting": "[1]; 7th therapy day, 100 mg daily", "value": 75, "unit": "%"},
      {"measurement": "patients (%) with reduction of total Hamilton score ≧50", "setting": "[1]; 7th therapy day, 100 mg daily", "value": 0, "unit": "%"},
      {"measurement": "patients (n) with reduction of total Hamilton score 25-49", "setting": "[1]; 7th therapy day, 100 mg daily", "value": 5},
      {"measurement": "patients (n) with reduction of total Hamilton score <25", "setting": "[1]; 7th therapy day, 100 mg daily", "value": 15},
      {"measurement": "patients (n) with reduction of total Hamilton score ≧50", "setting": "[1]; 7th therapy day, 100 mg daily", "value": 0},
      {"measurement": "patients (%) with reduction of total Hamilton score ≧50", "setting": "[1]; 7th therapy day, 100 mg daily, listed as phenotropyl", "value": 25, "unit": "%"},
      {"measurement": "patients (%) with reduction of total Hamilton score 25-49", "setting": "[1]; 14th therapy day, 100 mg daily", "value": 30, "unit": "%"},
      {"measurement": "patients (%) with reduction of total Hamilton score <25", "setting": "[1]; 14th therapy day, 100 mg daily", "value": 30, "unit": "%"},
      {"measurement": "patients (%) with reduction of total Hamilton score ≧50", "setting": "[1]; 14th therapy day, 100 mg daily", "value": 40, "unit": "%"},
      {"measurement": "patients (n) with reduction of total Hamilton score 25-49", "setting": "[1]; 14th therapy day, 100 mg daily", "value": 6},
      {"measurement": "patients (n) with reduction of total Hamilton score <25", "setting": "[1]; 14th therapy day, 100 mg daily", "value": 6},
      {"measurement": "patients (n) with reduction of total Hamilton score ≧50", "setting": "[1]; 14th therapy day, 100 mg daily", "value": 8},
      {"measurement": "patients (%) with reduction of total Hamilton score 25-49", "setting": "[1]; 21st therapy day, 100 mg daily", "value": 10, "unit": "%"},
      {"measurement": "patients (%) with reduction of total Hamilton score <25", "setting": "[1]; 21st therapy day, 100 mg daily", "value": 20, "unit": "%"},
      {"measurement": "patients (%) with reduction of total Hamilton score ≧50", "setting": "[1]; 21st therapy day, 100 mg daily", "value": 70, "unit": "%"},
      {"measurement": "patients (n) with reduction of total Hamilton score 25-49", "setting": "[1]; 21st therapy day, 100 mg daily", "value": 2},
      {"measurement": "patients (n) with reduction of total Hamilton score <25", "setting": "[1]; 21st therapy day, 100 mg daily", "value": 4},
      {"measurement": "patients (n) with reduction of total Hamilton score ≧50", "setting": "[1]; 21st therapy day, 100 mg daily", "value": 14},
      {"measurement": "patients (%) with reduction of total Hamilton score 25-49", "setting": "[1]; 28th therapy day, 100 mg daily", "value": 15, "unit": "%"},
      {"measurement": "patients (%) with reduction of total Hamilton score <25", "setting": "[1]; 28th therapy day, 100 mg daily", "value": 5, "unit": "%"},
      {"measurement": "patients (%) with reduction of total Hamilton score ≧50", "setting": "[1]; 28th therapy day, 100 mg daily", "value": 80, "unit": "%"},
      {"measurement": "patients (n) with reduction of total Hamilton score 25-49", "setting": "[1]; 28th therapy day, 100 mg daily", "value": 3},
      {"measurement": "patients (n) with reduction of total Hamilton score <25", "setting": "[1]; 28th therapy day, 100 mg daily", "value": 1},
      {"measurement": "patients (n) with reduction of total Hamilton score ≧50", "setting": "[1]; 28th therapy day, 100 mg daily", "value": 16},
      {"measurement": "patients (%) with reduction of total Hamilton score 25-49", "setting": "[1]; 35th therapy day, 100 mg daily", "value": 15, "unit": "%"},
      {"measurement": "patients (%) with reduction of total Hamilton score <25", "setting": "[1]; 35th therapy day, 100 mg daily", "value": 5, "unit": "%"},
      {"measurement": "patients (%) with reduction of total Hamilton score ≧50", "setting": "[1]; 35th therapy day, 100 mg daily", "value": 80, "unit": "%"},
      {"measurement": "patients (n) with reduction of total Hamilton score 25-49", "setting": "[1]; 35th therapy day, 100 mg daily", "value": 3},
      {"measurement": "patients (n) with reduction of total Hamilton score <25", "setting": "[1]; 35th therapy day, 100 mg daily", "value": 1},
      {"measurement": "patients (n) with reduction of total Hamilton score ≧50", "setting": "[1]; 35th therapy day, 100 mg daily", "value": 16},
      {"measurement": "patients (%) with reduction of total Hamilton score 25-49", "setting": "[1]; 42nd therapy day, 100 mg daily", "value": 15, "unit": "%"},
      {"measurement": "patients (%) with reduction of total Hamilton score <25", "setting": "[1]; 42nd therapy day, 100 mg daily", "value": 5, "unit": "%"},
      {"measurement": "patients (%) with reduction of total Hamilton score ≧50", "setting": "[1]; 42nd therapy day, 100 mg daily", "value": 80, "unit": "%"},
      {"measurement": "patients (n) with reduction of total Hamilton score 25-49", "setting": "[1]; 42nd therapy day, 100 mg daily", "value": 3},
      {"measurement": "patients (n) with reduction of total Hamilton score <25", "setting": "[1]; 42nd therapy day, 100 mg daily", "value": 1},
      {"measurement": "patients (n) with reduction of total Hamilton score ≧50", "setting": "[1]; 42nd therapy day, 100 mg daily", "value": 16},
      {"measurement": "tolerance and withdrawal syndrome", "setting": "[1]; course administration", "value": "does not induce tolerance and the withdrawal syndrome"},
      {"measurement": "reduction of the diarrhea intensity", "setting": "[2]; phenotropyl 50 mg/kg", "value": 1.7, "unit": "times"},
      {"measurement": "reduction of the intensity of ptosis", "setting": "[2]; phenotropyl 50 mg/kg", "value": 1.4, "unit": "times"},
      {"measurement": "reduction of the diarrhea intensity", "setting": "[2]; phenotropyl 100 mg/kg", "value": 2.4, "unit": "times"},
      {"measurement": "reduction of the diarrhea intensity", "setting": "[2]; phenotropyl 200 mg/kg", "value": 2.2, "unit": "times"},
      {"measurement": "reduction of the intensity of ptosis", "setting": "[2]; phenotropyl 100 and 200 mg/kg", "value": 1.8, "unit": "times"},
      {"measurement": "orientation and motion activity", "setting": "[2]; phenotropyl doses of 25 and 50 mg/kg", "value": "increased"},
      {"measurement": "orientation and motion activity", "setting": "[2]; phenotropyl doses of 100 and 200 mg/kg", "value": "reliably corresponds to the control level"},
      {"measurement": "Diarrhea", "setting": "[2]; [3]", "value": "2.0 ± 0.1", "unit": "points"},
      {"measurement": "Ptosis", "setting": "[2]; [3]", "value": "3.0 ± 0.2", "unit": "points"},
      {"measurement": "Number of pulses in activity meter", "setting": "[2]; [3]", "value": "20.3 ± 1.4"},
      {"measurement": "Diarrhea", "setting": "[2]; [4]", "value": "1.4 ± 0.2", "unit": "points"},
      {"measurement": "Ptosis", "setting": "[2]; [4]", "value": "2.5 ± 0.2", "unit": "points"},
      {"measurement": "Number of pulses in activity meter", "setting": "[2]; [4]", "value": "22.8 ± 1.2"},
      {"measurement": "Diarrhea", "setting": "[2]; [5]", "value": "1.0 ± 0.2", "unit": "points"},
      {"measurement": "Ptosis", "setting": "[2]; [5]", "value": "2.0 ± 0.2", "unit": "points"},
      {"measurement": "Number of pulses in activity meter", "setting": "[2]; [5]", "value": "30.6 ± 2.4"},
      {"measurement": "Diarrhea", "setting": "[2]; [6]", "value": "1.1 ± 0.2", "unit": "points"},
      {"measurement": "Ptosis", "setting": "[2]; [6]", "value": "2.0 ± 0.1", "unit": "points"},
      {"measurement": "Number of pulses in activity meter", "setting": "[2]; [6]", "value": "33.9 ± 3.2"}
    ]}
  ]
}
